What follows are compounds tested against RORC2 ligand binding domain (6-His-RORC2 LBD) (Homo sapiens (Human), UniProt P51449) (assay: Co-activator recruitment by TR-FRET). Conditions: 6-His-RORC2 LBD / SRC1-2 coactivator peptide, Table 1.
Type: biochemical

Sequence of RORC2 ligand binding domain (6-His-RORC2 LBD) (P51449 269-508): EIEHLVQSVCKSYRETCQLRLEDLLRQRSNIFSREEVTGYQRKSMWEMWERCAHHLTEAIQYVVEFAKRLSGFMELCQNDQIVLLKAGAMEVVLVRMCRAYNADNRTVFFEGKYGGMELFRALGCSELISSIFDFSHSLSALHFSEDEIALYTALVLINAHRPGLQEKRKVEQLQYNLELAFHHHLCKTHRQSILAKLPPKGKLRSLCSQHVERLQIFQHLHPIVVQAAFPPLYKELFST

| IC50 [nM] | SMILES |
| --- | --- |
| 11.8 | Cc1ccc(C(=O)Nc2cnc3c(c([C@@H]4CCN(C(=O)C5CCCC5)C(C)(C)C4)cn3C)c2C)cc1C#N [Example 59, (R)-3-cyano-N-(3-(1-(cyclopentanecarbonyl)-2,2-dimethylpiperidin-4-yl)-1,4-dimethyl-1H-pyrrolo[2,3-b]pyridin-5-yl)-4-methylbenzamide] |
| 15.2 | Cc1c(NC(=O)c2ccc(F)c(C#N)c2)cnc2c1c([C@@H]1CCN(C(=O)C3CCCC3)C(C)(C)C1)cn2C [Example 61, (R)-3-cyano-N-(3-(1-(cyclopentanecarbonyl)-2,2-dimethylpiperidin-4-yl)-1,4-dimethyl-1H-pyrrolo[2,3-b]pyridin-5-yl)-4-fluorobenzamide] |
| 12.9 | COc1cc(Cl)cc(C(=O)Nc2cnc3c(c([C@@H]4CCN(C(=O)C5CCCC5)C(C)(C)C4)cn3C)c2C)c1 [Example 63, (R)-3-chloro-N-(3-(1-(cyclopentane-carbonyl)-2,2-dimethylpiperidin-4-yl)-1,4-dimethyl-1H-pyrrolo[2,3-b]pyridin-5-yl)-5-methoxybenzamide] |
| 41.8 | Cc1c(NC(=O)c2cc(O)cc(C#N)c2)cnc2c1c([C@@H]1CCN(C(=O)C3CCCC3)C(C)(C)C1)cn2C [Example 64, (R)-3-cyano-N-(3-(1-(cyclopentanecarbonyl)-2,2-dimethylpiperidin-4-yl)-1,4-dimethyl-1H-pyrrolo[2,3-b]pyridin-5-yl)-5-hydroxybenzamide] |
| 5.7 | Cn1cc([C@@H]2CCN(C(=O)C3CCCC3)C(C)(C)C2)c2c(C(F)(F)F)c(NC(=O)c3cccc(C#N)c3)cnc21 [Example 65, (R)-3-cyano-N-(3-(1-(cyclopentanecarbonyl)-2,2-dimethylpiperidin-4-yl)-1-methyl-4-(trifluoromethyl)-1H-pyrrolo[2,3-b]pyridin-5-yl)benzamide] |
| 6.2 | Cc1c(NC(=O)c2cccc(C#N)c2)cnc2c1c([C@@H]1CCN(C(=O)CC3CCCC3)C(C)(C)C1)cn2C [Example 74, (R)-3-cyano-N-(3-(1-(2-cyclopentylacetyl)-2,2-dimethylpiperidin-4-yl)-1,4-dimethyl-1H-pyrrolo[2,3-b]pyridin-5-yl)benzamide] |
| 7.3 | Cc1c(NC(=O)c2cccc(C#N)c2)cnc2c1c([C@@H]1CCN(C(=O)CC3CCCCC3)C(C)(C)C1)cn2C [Example 75, (R)-3-cyano-N-(3-(1-(2-cyclohexylacetyl)-2,2-dimethylpiperidin-4-yl)-1,4-dimethyl-1H-pyrrolo[2,3-b]pyridin-5-yl)benzamide] |
| 21.2 | COc1cc(C#N)cc(C(=O)Nc2cnc3c(c([C@@H]4CCN(C(=O)C5CCCC5)[C@@H](C)C4)cn3C)c2C)c1 [Example 90, 3-cyano-N-(3-((2S,4R)-1-(cyclopentanecarbonyl)-2-methylpiperidin-4-yl)-1,4-dimethyl-1H-pyrrolo[2,3-b]pyridin-5-yl)-5-methoxybenzamide] |

Continued, compound first:

| SMILES | IC50 [nM] |
| --- | --- |
| Cc1c(NC(=O)c2cc(O)cc(C#N)c2)cnc2c1c(C1CCN(C(=O)[C@H](C)C(C)(C)C)CC1)cn2C [Example 56, (R)-3-cyano-N-(1,4-dimethyl-3-(1-(2,3,3-trimethylbutanoyl)piperidin-4-yl)-1H-pyrrolo[2,3-b]pyridin-5-yl)-5-hydroxybenzamide] | 5.6 |
| COc1cc(Cl)cc(C(=O)Nc2cnc3c(c([C@@H]4CCN(C(=O)C(C)C)C(C)(C)C4)cn3C)c2C)c1 [Example 62, (R)-3-chloro-N-(3-(1-isobutyryl-2,2-dimethylpiperidin-4-yl)-1,4-dimethyl-1H-pyrrolo[2,3-b]pyridin-5-yl)-5-methoxybenzamide] | 9.7 |
| Cc1c(NC(=O)c2cccc(C#N)c2)cnc2c1c([C@@H]1CCN(C(=O)C[C@@H](O)C(F)(F)F)C(C)(C)C1)cn2C [Example 73, 3-cyano-N-(3-((R)-2,2-dimethyl-1-((R)-4,4,4-trifluoro-3-hydroxybutanoyl)piperidin-4-yl)-1,4-dimethyl-1H-pyrrolo[2,3-b]pyridin-5-yl)benzamide] | 22.6 |
| Cc1c(NC(=O)c2cccc(C#N)c2)cnc2c1c([C@@H]1CCN(C(=O)CC3CCC3)C(C)(C)C1)cn2C [Example 76, (R)-3-cyano-N-(3-(1-(2-cyclobutylacetyl)-2,2-dimethylpiperidin-4-yl)-1,4-dimethyl-1H-pyrrolo[2,3-b]pyridin-5-yl)benzamide] | 7.5 |
| CC(C)C(=O)N1C[C@H]2CC[C@@H](C1)[C@@H]2c1cn(C)c2ncc(NC(=O)c3cccc(C#N)c3)c(C(F)(F)F)c12 [Example 77, 3-cyano-N-(3-((1R,5S,8r)-3-isobutyryl-3-azabicyclo[3.2.1]octan-8-yl)-1-methyl-4-(trifluoromethyl)-1H-pyrrolo[2,3-b]pyridin-5-yl)benzamide] | 5.2 |
| Cn1cc(C2[C@@H]3CC[C@H]2CN(C(=O)C2CCCC2)C3)c2c(C(F)(F)F)c(NC(=O)c3cccc(C#N)c3)cnc21 (stereo partly drawn) [Example 79, 3-cyano-N-{3-((1R,5S,8r)-3-(cyclopentanecarbonyl)-3-azabicyclo[3.2.1]octan-8-yl]-1-methyl-4-(trifluoromethyl)-1H-pyrrolo[2,3-b]pyridin-5-yl}benzamide] | 39.1 |
| CC(C)C(=O)N1CC[C@@H](c2cn(C)c3ncc(NC(=O)c4cccc(C#N)c4F)c(C(F)(F)F)c23)[C@@H](C)C1 [Example 82, 3-cyano-2-fluoro-N-(3-((3R,4R)-1-isobutyryl-3-methylpiperidin-4-yl)-1-methyl-4-(trifluoromethyl)-1H-pyrrolo[2,3-b]pyridin-5-yl)benzamide] | 5.1 |
| Cc1c(NC(=O)c2cccc(C#N)c2)cnc2c1c([C@@H]1CCN(C(=O)C(C)C3CC3)C[C@@H]1C)cn2C (stereo partly drawn) [Example 86, 3-cyano-N-(3-((3R,4R)-1-(2-cyclopropylpropanoyl)-3-methylpiperidin-4-yl)-1,4-dimethyl-1H-pyrrolo[2,3-b]pyridin-5-yl)benzamide] | 16 |
| COc1ccc(C(=O)Nc2cnc3c(c(C4[C@@H]5CC[C@H]4CN(C(=O)C4CCCC4)C5)cn3C)c2C)cc1C#N (stereo partly drawn) [Example 99, 3-cyano-N-(3-((1R,5S,8r)-3-(cyclopentanecarbonyl)-3-azabicyclo[3.2.1]octan-8-yl)-1,4-dimethyl-1H-pyrrolo[2,3-b]pyridin-5-yl)-4-methoxybenzamide] | 21.1 |
| Cc1c(NC(=O)c2cccc(C#N)c2)cnc2c1c([C@@H]1CCN(C(=O)C(C)C)[C@@H](C)C1)cn2C [Example 113, 3-cyano-N-(3-((2S,4R)-1-isobutyryl-2-methylpiperidin-4-yl)-1,4-dimethyl-1H-pyrrolo[2,3-b]pyridin-5-yl)benzamide] | 20.2 |

From patent publication US9670201B2, “Methyl- and trifluoromethyl-substituted pyrrolopyridine modulators of RORC2 and methods of use thereof” (Pfizer Inc., priority 2014, dated 2017)
